Results from patent publication US6645959B1, “Method for treating postoperative ileus” (Warner-Lambert Company, priority 2000, dated 2003).
Structures can show the parent of a compound that is named as a salt.

Key:
[1] = test system: AVP-induced pressor response (V1A antagonism); experiment: Antagonism of AVP-induced pressor response in rats (oral); format: in vivo; details: given orally to rats
[2] = test system: AVP-induced pressor response (V1A antagonism); experiment: Antagonism of AVP-induced pressor response in dogs (IV); format: in vivo
[3] = test system: urinary output (V2 antagonism); experiment: Urinary output and osmolality in conscious dogs (V2 antagonism); format: in vivo
[4] = test system: dogs with heart failure induced by rapid right ventricular pacing; experiment: Heart failure induced by rapid right ventricular pacing in dogs; format: in vivo; details: IV 0.1 mg/kg
[5] = Oral pharmacokinetics in the rat; format: in vivo
From the text: (§1) There is a marked food effect with absorption reduced by >50% in dogs after a meal.

[6] = Oral pharmacokinetics in the dog; format: in vivo
From the text: as §1

bone marrow in dogs = experiment: 2- and 13-week oral toxicity studies in dogs; format: in vivo
rats [7] = experiment: Reproductive performance and fertility studies in rats; format: in vivo
rats [8] = experiment: Teratogenicity in rats; format: in vivo
rabbits = experiment: Teratogenicity in rabbits; format: in vivo
bacteria = experiment: Mutagenicity in bacteria; format: cell-based
human lymphocytes = experiment: Clastogenicity in human lymphocytes in vitro; format: cell-based
bone marrow of rats = experiment: Clastogenicity in bone marrow of rats; format: in vivo
rats [9] = details: rat, in vivo, 2.5 mg/kg
dogs = details: dog, in vivo, 2 mg/kg
[10] = test system: AVP-induced platelet aggregation (V1A antagonist activity); experiment: AVP-induced platelet aggregation in Phase 1 subjects; format: in vivo, human; details: subjects at 20 mg/day orally or 2.5 mg IV
[11] = test system: AVP-induced dermal vasoconstriction; experiment: AVP-induced dermal vasoconstriction in Phase 1 subjects; format: in vivo, human; details: subjects at 50 mg IV
[12] = test system: aquaretic action (V2 receptor antagonism); experiment: Aquaretic action in normal subjects (V2 receptor antagonism); format: in vivo, human
healthy subjects = experiment: Safety in Phase 1 subjects; format: in vivo, human
From the text: These observations were considered related to antagonism of V2 receptors and not a safety concern. Vital signs (blood pressure and heart rate) were unaffected by YM087.

female rats = details: 13-week oral study, all doses
[13] = Pharmacokinetics in healthy subjects (Phase 1)
[14] = oral 20 mg, single dose combination

Cc1nc2c([nH]1)-c1ccccc1N(C(=O)c1ccc(NC(=O)c3ccccc3-c3ccccc3)cc1)CC2 [YM087, N-[4-(2-methyl-4,5,6-tetrahydromidazo [4,5-d][1]benzazepin-6-ylcarbonyl)phenyl]biphenyl-2-carboxamide hydrochloride]
ID50 (dose that reduced the AVP response by 50%) [1]: 0.32 mg/kg
ID50 (dose that reduced the AVP response by 50%) [2]: 0.026 mg/kg
urinary output ([3]; conscious dogs, oral 0.03 to 0.3 mg/kg, dose-related): increased urinary output
urinary osmolality ([3]; conscious dogs, oral 0.03 to 0.3 mg/kg, reduced from 1500): < 100 mOsm/kg H2O
effect on urinary sodium (Na) or potassium (K) excretion ([3]; unlike furosemide): little or no effect
cardiac function [4]: significantly improved the depressed cardiac function
water diuresis [4]: produced a water diuresis
half-life ([5]; in vivo, rats, read-out: elimination half-life (converted)): 1 h
time to peak concentrations ([5]; oral): 0.5 h
half-life ([6]; in vivo, dogs, read-out: elimination half-life (converted)): 2 h
time to peak concentrations ([6]; oral): 1 h
peripheral blood counts (bone marrow in dogs; affected dogs, 13-week oral study): Decreased peripheral erythrocyte, leukocyte, and/or platelet counts
reversibility of bone marrow and peripheral blood changes (bone marrow in dogs; dogs): reversible
female fertility findings (rats [7]; females given 100 mg/kg orally for 2 weeks prior to mating with untreated males): reduced fertility index, increased implantation loss, and decreased live fetuses
reproductive performance of male rats (rats [7]; male rats): did not affect
teratogenicity (rats [8]): not teratogenic
teratogenicity (rabbits): not teratogenic
mutagenicity (bacteria): not mutagenic
clastogenicity (human lymphocytes): not clastogenic
clastogenicity (bone marrow of rats): not clastogenic
toxicity in 4-week IV study (rats [9]): No toxicity was observed
toxicity in 4-week IV study (dogs): No toxicity was observed
AVP-induced platelet aggregation [10]: Inhibition of AVP-induced platelet aggregation
AVP-induced dermal vasoconstriction [11]: Total inhibition
tolerability of aquaretic effects ([12]; 120 mg QD or 60 mg BID orally or 50 mg IV, normal subjects): too uncomfortable in normal subjects to be tolerable
duration of increased urine production rate postdosing ([12]; IV 50 mg/day): ≤ 6 h
duration of increased urine production rate postdosing ([12]; IV doses up to 250 μg/kg): up to 3 hours
dose at which aquaretic action with decrease in urine osmolarity starts ([12]; IV, normal subjects): 0.05 mg/kg
dose at which aquaretic action with decrease in urine osmolarity starts ([12]; oral, normal subjects): 15 mg
overall safety (healthy subjects; approximately 250 subjects treated): no major safety concerns were identified
urinary and plasma osmolarity at higher doses (healthy subjects; higher doses, related to V2 antagonism): urinary osmolarity decreased and plasma osmolarity increased
biochemical or hematological laboratory parameters (healthy subjects; human, in vivo): No drug-related trend was observed
other adverse events (healthy subjects; human, in vivo): flushes, a sensation of cold extremities, abdominal complaints, abnormal stools, syncope, dizziness, palpitations, and postural hypotension
vital signs (blood pressure and heart rate) (healthy subjects; human, in vivo): unaffected
serious event in patient with severe congestive heart failure (healthy subjects; one patient, 80 mg/day for 4 days): generalized tonic clonic seizure
number of subjects with minor reversible decreases in white blood cell count (healthy subjects; one subject on placebo also affected): Three
most frequent adverse events (healthy subjects; regardless of treatment association): mild or moderate thirst and mild headache
uterine weights (female rats): decreased at all doses
half-life ([13]; human, plasma): 4 to 5 h
bioavailability ([13]; human, plasma, oral): 43 to 59%
Tmax ([13]; human, plasma, po): ~1 h
bioavailability ([13]; human, plasma, po, 60 mg): 44%
effect of 0.5 mg IV digoxin on pharmacokinetics [13, 14]: not affected
effect of 25 mg oral captopril on pharmacokinetics [13, 14]: not affected
plasma levels after the second dose ([13]; repeated BID oral doses, 60 mg): unexpectedly high plasma levels
